# pIC50: −log10 of the molar value.
# Tested on: IL-lb-induced proteoglycan breakdown in bovine nasal cartilage
# Assay: in vitro cytokine-induced cartilage degradation assay (Bovine Nasal Septum Cartilage Degradation Assay)
# Format: cell-based
# Details: Bos taurus; IL-lb (500 ng/ml), 40 hours, 37° C.
# Protocol: The compounds are efficacious in an in vitro cytokine-induced cartilage degradationassay (Arner EC and Pratta MA 1989. Arthritis Rheum 32:288-297). The activity of these compounds in blocking IL-lb-induced proteoglycan breakdown in bovine nasal cartilage was assessed.
# Bovine nasal cartilage was incubated in Dulbecco's 10 modified Eagle's Medium (DMEM) containing 5% FCS and antibiotics at 37° C. in an atmosphere of 95% air and 5% CO2 for 40 hours in the absence or presence of IL-lb (500 ng/ml), with or without compound. Compounds were dissolved in DMSO (10^-2M) and further diluted with 15 medial to the required concentration and were included throughout the culture period. At the end of incubation, media were removed and assayed proteoglycan breakdown products using the 1,9 dimethylmethylene blue assay for glycosaminoglycans. Compounds were evaluated for the ability to block the stimulated release of proteoglycan in response to IL-l.
row,pIC50,SMILES
1,4.88,"Cc1ccc(-n2sc(-c3ccccc3)cc2=O)cc1 [Example 1, N-(4-methylphenyl)-5-phenyl-4-isothiazolin-3-one]"
2,5.08,"CCOC(=O)c1ccc(-n2sc(-c3ccccc3)cc2=O)cc1 [Example 4, N-(4-carbethoxyphenyl)-5-phenyl-4-isothiazolin-3-one]"
3,4.82,"O=c1cc(-c2ccccc2)sn1-c1nc2ccccc2s1 [Example 8, N-(2-benzothiazolyl)-5-phenyl-4-isothiazolin-3-one]"
4,4.36,"O=c1c(-c2ccccc2)c(-c2ccccc2)sn1-c1ccccc1 [Example 10, 4,5,N-triphenyl-4-isothiazolin-3-one]"
5,4.95,O=c1cc(-c2ccccc2Cl)sn1-c1ccccc1 [Example 11]
6,4.46,COc1ccccc1-c1cc(=O)n(-c2ccccc2)s1 [Example 12]
7,4.83,O=c1cc(-c2ccccc2)sn1-c1ccc(Cl)cc1 [Example 13]
8,5.14,O=c1cc(-c2ccccc2)sn1-c1ccc(C(F)(F)F)cc1 [Example 15]
9,4.51,O=c1cc(-c2ccccc2)sn1-c1ccc([N+](=O)[O-])cc1 [Example 16]
10,4.85,Cc1cc([N+](=O)[O-])ccc1-n1sc(-c2ccccc2)cc1=O [Example 17]
11,5.11,N#Cc1ccc(-n2sc(-c3ccccc3)cc2=O)cc1 [Example 18]
12,4.95,O=c1cc(-c2ccccc2)sn1-c1cccc(Cl)c1 [Example 19]
13,4.72,COc1cccc(-n2sc(-c3ccccc3)cc2=O)c1 [Example 20]
14,5.15,O=c1cc(-c2ccccc2)sn1-c1cccc(C(F)(F)F)c1 [Example 21]
15,4.83,O=c1cc(-c2ccc(Cl)cc2)sn1-c1ccccc1 [Example 28]
16,4.73,O=c1cc(-c2cccc(Cl)c2)sn1-c1ccccc1 [Example 29]
17,4.85,O=c1cc(-c2cccc(C(F)(F)F)c2)sn1-c1ccccc1 [Example 33]
18,5.14,O=c1cc(-c2ccccc2C(F)(F)F)sn1-c1ccccc1 [Example 34]
19,5.11,CCOC(=O)c1cccc(-n2sc(-c3ccccc3)cc2=O)c1 [Example 37]
20,4.92,CCOC(=O)c1ccccc1-n1sc(-c2ccccc2)cc1=O [Example 38]

# Same assay, conditions: Bos taurus; at 30 μM; IL-lb (500 ng/ml), 40 hours, 37° C.
row,SMILES,inhibition at 30 µM [%]
1,"O=c1c(Br)c(-c2ccccc2)sn1-c1ccccc1 [Example 2, 4-bromo-N,5-diphenyl-4-isothiazolin-3-one]",38
2,"O=C(O)c1ccc(-n2sc(-c3ccccc3)cc2=O)cc1 [Example 3, N-(4-carboxyphenyl)-5-phenyl-4-isothiazolin-3-one]",19
3,"NC(=O)c1ccc(-n2sc(-c3ccccc3)cc2=O)cc1 [Example 5, N-(4-carboxamidophenyl)-5-phenyl-4-isothiazolin-3-one]",42
4,"Nc1ccccc1-n1sc(-c2ccccc2)cc1=O [Example 6, N-(2-aminophenyl) -5-phenyl-4-isothiazolin-3-one]",19
5,"O=c1cc(-c2ccccc2)sn1-c1ccc(N(S(=O)(=O)C(F)(F)F)S(=O)(=O)C(F)(F)F)cc1 [Example 7, N-(4-(bistrifluoromethane)sulfonamidophenyl)-5-phenyl-4-isothiazolin-3-one]",48
6,"O=C(O)c1ccc(-c2cc(=O)n(-c3ccccc3)s2)cc1 [Example 9, 5-(4-carboxyphenyl)-N-phenyl-4-isothiazolin-3-one]",18
7,COc1ccc(-n2sc(-c3ccccc3)cc2=O)cc1 [Example 14],85
8,Cc1ccccc1-n1sc(-c2ccccc2)cc1=O [Example 22],52
9,O=c1cc(-c2ccccc2)sn1-c1ccccc1Cl [Example 23],33
10,COc1ccccc1-n1sc(-c2ccccc2)cc1=O [Example 24],61
11,O=c1cc(-c2ccccc2)sn1-c1ccccc1C(F)(F)F [Example 25],25
12,"O=c1cc(-c2ccccc2)sn1-c1ccccc1[N+](=O)[O-] [Example 26, N-(2-nitrophenyl)-5-phenyl-4-isothiazolin-3-one]",43
13,COc1ccc(-c2cc(=O)n(-c3ccccc3)s2)cc1 [Example 30],37
14,O=c1cc(-c2ccc(C(F)(F)F)cc2)sn1-c1ccccc1 [Example 32],25
15,O=C(O)c1cccc(-n2sc(-c3ccccc3)cc2=O)c1 [Example 35],13
16,O=C(O)c1ccccc1-n1sc(-c2ccccc2)cc1=O [Example 36],26
17,"Nc1ccc(-n2sc(-c3ccccc3)cc2=O)cc1 [Example 39, N-(4-aminophenyl)-5-phenyl-4-isothiazolin-3-one]",32
18,Cc1cc(N)ccc1-n1sc(-c2ccccc2)cc1=O [Example 40],14

# From US5411977A, “Substituted 2,5-diaryl-4-isothiazolin-3-ones as antiinflammatory and antithrombotic agents” (The Dupont Merck Pharmaceutical Company, priority 1993, dated 1995)
